{"source": "patent US4939175A", "about": "“Use of N,N-dimethyl-1-[1-(4-chlorophenyl)cyclobutyl]-3-methylbutylamine” (priority 1988, dated 1990)", "key": {"[1]": {"system": "inhibition of conditioned avoidance response induced by reserpine in rats", "assay": "Inhibition of conditioned avoidance response induced by reserpine in rats", "assay_type": "in vivo, Std-Wistar male rats", "conditions": "for Conditioned avoidance response 1 hour after administration of the test sample: reserpine 1 mg/kg, control 2; for Conditioned avoidance response before administration of reserpine: baseline before test sample; for Conditioned avoidance response 18 to 20 hours after administration of reserpine: reserpine 1 mg/kg i.p., before test sample", "procedure": "Effect of the test samples on the inhibition of conditioned avoidance response induced by reserpine in rats\nStd-Wistar male rats (8 to 9 week age) weighing of 270 to 300 g were fed under the conditions of 23±2° C., 60±10% R.H. and artificial lighting from 7 AM to 7 PM for a week, and then subjected to the test.\nThe test was carried out by using a shuttle box. The shuttle box used herein was a rectangular box, which was equipped with a buzzer for conditioned stimulus at the upper part and grids of 2 mm in diameter, for non-conditioned stimulus, at intervals of 1 cm on the floor, and divided into two equal sized compartments by a hurdle of 5 cm in height.\nThe schedule for inducing the conditioned avoidance response was controlled by a computer, and all the observed results of avoidance or escape response were recorded automatically.\nThe avoidance condition was carried out as follows:\nAfter the conditioned stimulus of the buzzer with sound signal for 5 seconds, the non-conditioned stimulus of the foot shock was given for 5 seconds to rats. Each stimulus was stopped immediately, if the rat jumped over the hurdle to the other compartment during the conditioned or non-conditioned stimulus.\nThe above-mentioned rats were put on the trials for 25 times. Then the rats were given reserpine (1 mg/kg, intraperitoneally). The rats were tested for 15 times at the time of 18 to 20 hours after the reserpine administration, and then they were divided into several groups ([…]).\nThe test sample was dissolved in distilled water and administered orally to each group at 24 to 26 hours after the reserpine administration. For reference, distilled water as control sample, and amitriptyline and amantadine as test drugs were used.\nAt one hour after the test sample administration, the rats were put on the trials for 25 times and the conditioned avoidance responce was compared between the control group (distilled water administration), the test compound-administered group and the test drug-administered groups."}, "[2]": {"system": "depletion of dopamine induced by MPTP in mice whole brain", "assay": "animal or person", "assay_type": "in vivo, SlC: ddy strain male mice", "conditions": "Mus musculus, po, 168 h, MPTP 50 mg/kg s.c., read-out: Percentage of the amount of dopamine in the treated group against the amount of dopamine in the non-treated group; for response vs control in vivo at 10 mg/kg: 10 mg/kg oral; for response vs control in vivo at 30 mg/kg: 30 mg/kg oral"}, "[3]": {"system": "circling behavior in rats with unilateral substantia nigra lesions", "assay": "Circling behavior in rats with unilateral substantia nigra lesions", "assay_type": "in vivo, Std: Wistar male rats", "conditions": "50 mg/kg oral, 2 hours after; control 0.1 ± 0.4", "procedure": "Effect of the test samples on circling behavior in rats with unilateral substantia nigra lesions\nStd: Wistar male rats (8 heads/group) were used. The rat with unilateral substantia nigra lesions was made by injecting 8 μg/4 μl of 6-hydroxydopamine to the right side of substantia nigra.\nThe test sample was administered orally to the rat. At 2 hours later, the number of circling behavior per 10 minutes was counted.\nAmantadine was used as the reference drug and distilled water was used as control sample."}, "[4]": {"system": "re-uptake of ^3 H-dopamine", "assay": "Re-uptake of 3H-dopamine in vitro (synaptosomes, P2 fraction of whole brain)", "assay_type": "biochemical, Std: Wistar strain male rat", "conditions": "rat brain synaptosomes, 37° C., 20 minutes", "procedure": "Effect of the test samples on the re-uptake of ^3 H-dopamine in vitro\nP2 fraction was prepared from the whole brain of Std: Wistar strain male rat. […] The obtained mixture was incubated at 37° C. for 20 minutes and then subjected to the suction filtration with Whatman GF/B filter paper.\nThe obtained filter paper was put in a vial containing 10 ml of toluene type scintillator and its radioactivity was measured by means of liquid scintillation counter. The amount of the specific re-uptake of ^3 H-dopamine was obtained by subtracting the amount of re-uptake at 0° C. as blank."}, "[5]": {"system": "depletion of serotonin induced by p-chloroamphetamine", "assay": "Depletion of serotonin (5-HT) induced by p-chloroamphetamine (whole brain)", "assay_type": "in vivo, SlC:ddy mice", "conditions": "p-chloroamphetamine 10 mg/kg i.p., control 48 ± 6, **p < 0.01", "procedure": "Effect of the test samples on the depletion of serotonin (hereinafter referred to as \"5-HT\") induced by p-chloroamphetamine\nThe test sample was administered orally to SlC:ddy made mice and after 60 minutes, p-chloroamphetamine (10 mg/kg) was injected intraperitoneally.\nAt 6 hours later, the mice were decapitated. The whole brain was rapidly removed and homogenized in 0.06M perchloric acid with N-methylserotonin (10 μg/ml) as an internal standard. The homogenate was centrifuged and then the amount of 5-HT in the supernatant was determined by high performance liquid chromatography with electrochemical detection.\nAmitriptyline was used as the reference drug and distilled water was used as control sample."}, "[6]": {"system": "spontaneous movement of mice", "assay": "Spontaneous movement of mice", "set-up": "species or system SlC:ddy male mice", "conditions": "mouse, in vivo", "procedure": "Effect of the test samples on the sponteneous movement of mice\nThe test sample was administered orally to SlC:ddy male mice. Immediately after, the amount of movement activity of the test mice was measured for 16 hours, at the time of 1, 2, 4, 8 and 16 hours respectively after the oral administration, by means of spontaneous movement measuring system (displacement measuring type).\nMethamphetamine was used as the reference drug and distilled water was used as control sample.\nThe obtained results are shown in FIG. 1, columns and bars represent the mean±S.D. and statistical significance was evaluated by the multiple comparison test of Dunnet's type."}, "[7]": {"conditions": "Japanese Unexamined Patent Publication No. 181,043 (1982); cited from earlier work"}, "[8]": {"system": "dopamine neuron, norepinephrine and serotonin neuron", "assay": "Activation of dopamine, norepinephrine and serotonin neuron"}, "[9]": {"system": "memory and learning", "assay": "Effect on memory and learning in preclinical studies", "assay_type": "in vivo"}, "[10]": {"conditions": "Experiment II, control 88 ± 20, *P < 0.05"}, "[11]": {"conditions": "Experiment I, control 71 ± 11, *P < 0.05, **P < 0.01"}}, "note": "Where two headings read alike, the source gives them in different places."}
{"smiles": "NC12CC3CC(CC(C3)C1)C2", "note": "[Amantadine, amantadine]", "values": [{"measurement": "Conditioned avoidance response 1 hour after administration of the test sample", "setting": "[1]; 10 mg/kg oral", "result": 2, "unit": "%"}, {"measurement": "Conditioned avoidance response 1 hour after administration of the test sample", "setting": "[1]; 50 mg/kg oral", "result": 38, "unit": "%"}, {"measurement": "Conditioned avoidance response before administration of reserpine", "setting": "[1]; 10 mg/kg group", "result": 94, "unit": "%"}, {"measurement": "Conditioned avoidance response before administration of reserpine", "setting": "[1]; 50 mg/kg group", "result": 95, "unit": "%"}, {"measurement": "Conditioned avoidance response 18 to 20 hours after administration of reserpine", "setting": "[1]; 10 mg/kg group", "result": 3, "unit": "%"}, {"measurement": "Conditioned avoidance response 18 to 20 hours after administration of reserpine", "setting": "[1]; 50 mg/kg group", "result": 3, "unit": "%"}, {"measurement": "response vs control in vivo at 10 mg/kg", "setting": "[2]; [10]", "result": "77 ± 21", "unit": "%"}, {"measurement": "response vs control in vivo at 30 mg/kg", "setting": "[2]; [10]", "result": "64 ± 16", "unit": "%"}, {"measurement": "Number of circling behavior per 10 min.", "setting": "[3]", "result": "0.4 ± 0.7", "unit": "per 10 min."}]}
{"smiles": "CN(C)CCC=C1c2ccccc2CCc2ccccc21", "note": "[Amitriptyline, amitriptyline]", "values": [{"measurement": "Conditioned avoidance response 1 hour after administration of the test sample", "setting": "[1]; 10 mg/kg oral", "result": 1, "unit": "%"}, {"measurement": "Conditioned avoidance response 1 hour after administration of the test sample", "setting": "[1]; 40 mg/kg oral", "result": 0, "unit": "%"}, {"measurement": "Conditioned avoidance response before administration of reserpine", "setting": "[1]; 10 mg/kg group", "result": 93, "unit": "%"}, {"measurement": "Conditioned avoidance response before administration of reserpine", "setting": "[1]; 40 mg/kg group", "result": 94, "unit": "%"}, {"measurement": "Conditioned avoidance response 18 to 20 hours after administration of reserpine", "setting": "[1]; 10 mg/kg group", "result": 1, "unit": "%"}, {"measurement": "Conditioned avoidance response 18 to 20 hours after administration of reserpine", "setting": "[1]; 40 mg/kg group", "result": 7, "unit": "%"}, {"measurement": "IC50", "setting": "[4]; Experiment I", "result": 7.7, "unit": "µM"}, {"measurement": "IC50", "setting": "[4]; Experiment II", "result": 8.2, "unit": "µM"}, {"measurement": "response vs control in vivo at 10 mg/kg", "setting": "[2]; [11]", "result": "81 ± 15", "unit": "%"}, {"measurement": "response vs control in vivo at 30 mg/kg", "setting": "[2]; [11]", "result": "77 ± 15", "unit": "%"}, {"measurement": "Percentages of the amount of 5-HT in the treated group against the amount of 5-HT in the non-treated group", "setting": "[5]; 10 mg/kg oral", "result": "50 ± 4", "unit": "%"}, {"measurement": "Percentages of the amount of 5-HT in the treated group against the amount of 5-HT in the non-treated group", "setting": "[5]; 30 mg/kg oral", "result": "56 ± 10", "unit": "%"}, {"measurement": "Percentages of the amount of 5-HT in the treated group against the amount of 5-HT in the non-treated group", "setting": "[5]; 90 mg/kg oral", "result": "92 ± 8", "unit": "%"}]}
{"smiles": "CC(C)CC(N(C)C)C1(c2ccc(Cl)cc2)CCC1", "note": "(stereo not drawn) [N,N-dimethyl-1-[1-(4-chlorophenyl)cyclobutyl]-3-methylbutylamine]", "values": [{"measurement": "spontaneous movement", "setting": "[6]", "result": "increase of spontaneous movement"}, {"measurement": "therapeutical effect as an antidepressant", "setting": "[7]", "result": "has a therapeutical effect as an antidepressant"}, {"measurement": "activation of dopamine neuron in addition to both norepinephrine and serotonin neuron", "setting": "[8]", "result": "intensive activation of dopamine neuron in addition to both norepinephrine and serotonin neuron"}, {"measurement": "effect on dopamine activity", "setting": "[8]", "result": "enhancing effect of dopamine activity"}, {"measurement": "effect on memory and learning", "setting": "[9]", "result": "intensive effect on memory and learning"}]}
